Patent US20150105252A1, “SUBSTITUTED PYRAZOLES AS HERBICIDES” (E I DU PONT DE NEMOURS AND COMPANY, priority 2013, published 2015)
Where “and” joins values, the source holds several entries; their conditions need not be identical. Equal values may be shown once.

Key:
fall panicum [1] = test: Test F preemergence; assay type: in vivo, Panicum dichotomiflorum
Description: (§1) Seeds of plant species selected from corn (Zea mays), soybean (Glycine max), velvetleaf (Abutilon theophrasti), lambsquarters (Chenopodium album), wild poinsettia (Euphorbia heterophylla), pigweed, palmer (palmer pigweed, Amaranthus palmeri), common waterhemp (Amaranthus rudis), surinam grass (Brachiaria decumbens), large crabgrass (Digitaria sanguinalis), crabgrass, Brazil (Brazilian crabgrass, Digitaria horizontalis), fall panicum (Panicum dichotomiflorum), giant foxtail (Setaria faberii), green foxtail (Setaria viridis), goosegrass (Eleusine indica), johnsongrass (Sorghum halepense), common ragweed (Ambrosia elation), barnyardgrass (Echinochloa crus-galli), southern sandbur (Cenchrus echinatus), arrowleaf sida (Sida rhombifolia), Italian ryegrass (Lolium multiflorum), dayflower, VA (Virginia (VA) dayflower, Commelina virginica), field bindweed (Convolvulus arvensis), cocklebur (common cocklebur, Xanthium strumarium), morningglory (Ipomoea coccinea), nightshade (eastern black nightshade, Solanum ptycanthum), kochia (Kochia scoparia), yellow nutsedge (Cyperus esculentus), and hairy beggarticks (Bidens pilosa), were planted into a silt loam soil and treated preemergence with test chemicals formulated in a non-phytotoxic solvent mixture which included a surfactant.
(§2) At the same time, plants from these crop and weed species and also horseweed (Canada horseweed, Conyza canadensis), smartweed (ladysthumb smartweed, Polygonum persicaria), waterhemp_RES1, (ALS & Triazine resistant common waterhemp, Amaranthus rudis), and waterhemp_RES2, (ALS & HPPD resistant common waterhemp, Amaranthus rudis) were treated with postemergence applications of test chemicals formulated in the same manner. Plants ranged in height from 2 to 18 cm for postemergence treatments (1- to 4-leaf stage). Treated plants and controls were maintained in a greenhouse for 14 to 21 days, after which time all species were compared to controls and visually evaluated. Plant response ratings, summarized in Table F, are based on a scale of 0 to 100 where 0 is no effect and 100 is complete control. A dash (-) response means no test result.

corn = test: Test F postemergence; assay type: in vivo, Zea mays; conditions: scale 0 to 100
Description: as §1, §2

soybean = test: Test F postemergence; assay type: in vivo, Glycine max; conditions: scale 0 to 100
Description: as §1, §2

pigweed, palmer = test: Test F postemergence; assay type: in vivo, Amaranthus palmeri; conditions: scale 0 to 100
Description: as §1, §2

crabgrass, Brazil = test: Test F postemergence; assay type: in vivo, Digitaria horizontalis; conditions: scale 0 to 100
Description: as §1, §2

fall panicum [2] = test: Test F postemergence; assay type: in vivo, Panicum dichotomiflorum; conditions: scale 0 to 100
Description: as §1, §2

southern sandbur = test: Test F postemergence; assay type: in vivo, Cenchrus echinatus; conditions: scale 0 to 100
Description: as §1, §2

dayflower, VA = test: Test F postemergence; assay type: in vivo, Commelina virginica; conditions: scale 0 to 100
Description: as §1, §2

field bindweed = test: Test F postemergence; assay type: in vivo, Convolvulus arvensis; conditions: scale 0 to 100
Description: as §1, §2

hairy beggarticks = test: Test F postemergence; assay type: in vivo, Bidens pilosa; conditions: scale 0 to 100
Description: as §1, §2

common waterhemp = test: Test F postemergence; assay type: in vivo, Amaranthus rudis; conditions: scale 0 to 100
Description: as §1, §2

[3] = tested on: waterhemp_RES2 (ALS & HPPD resistant common waterhemp); test: Test F postemergence; assay type: in vivo, Amaranthus rudis; conditions: scale 0 to 100
Description: as §1, §2

[4] = Preemergence, 62 g ai/ha, scale 0 to 100
[5] = Preemergence, 125 g ai/ha, scale 0 to 100
[6] = preemergence, 16 g ai/ha, scale 0 to 100, 100 is complete control

CCc1cc(-c2ccc(C(F)(F)F)cc2)nn1Cc1ccnc(C(F)(F)F)c1 [Compound 110]
Plant response rating, Fall Panicum (fall panicum [1]; Preemergence, 31 g ai/ha, scale 0 to 100): 75 | Plant response rating, Fall Panicum (fall panicum [1]; [4]): 98 | Plant response rating, Fall Panicum (fall panicum [1]; [5]): 100 | Plant response rating, Fall Panicum (fall panicum [1]; preemergence, 8 g ai/ha, scale 0 to 100, 100 is complete control): 0 | Plant response rating, Fall Panicum (fall panicum [1]; [6]): 5 | Plant response rating, Corn (corn; Postemergence, 16 g ai/ha): 10 | Plant response rating, Corn (corn; Postemergence, 31 g ai/ha): 10 | Plant response rating, Corn (corn; Postemergence, 125 g ai/ha): 20 | Plant response rating, Corn (corn; postemergence, 62 g ai/ha): 10 and 15 | Plant response rating, Corn (corn; postemergence, 8 g ai/ha): 10 | Plant response rating, Soybean (soybean; Postemergence, 16 g ai/ha): 30 | Plant response rating, Soybean (soybean; Postemergence, 31 g ai/ha): 30 | Plant response rating, Soybean (soybean; Postemergence, 125 g ai/ha): 30 | Plant response rating, Soybean (soybean; postemergence, 8 g ai/ha): 20 | Plant response rating, Pigweed, Palmer (pigweed, palmer; Postemergence, 16 g ai/ha): 85 | Plant response rating, Pigweed, Palmer (pigweed, palmer; Postemergence, 31 g ai/ha): 90 | Plant response rating, Pigweed, Palmer (pigweed, palmer; Postemergence, 125 g ai/ha): 85 | Plant response rating, Pigweed, Palmer (pigweed, palmer; postemergence, 62 g ai/ha): 50 and 85 | Plant response rating, Pigweed, Palmer (pigweed, palmer; postemergence, 8 g ai/ha): 60 | Plant response rating, Crabgrass, Brazil (crabgrass, Brazil; Postemergence, 16 g ai/ha): 30 | Plant response rating, Crabgrass, Brazil (crabgrass, Brazil; Postemergence, 31 g ai/ha): 30 | Plant response rating, Crabgrass, Brazil (crabgrass, Brazil; Postemergence, 125 g ai/ha): 50 | Plant response rating, Crabgrass, Brazil (crabgrass, Brazil; postemergence, 62 g ai/ha): 30 and 40 | Plant response rating, Crabgrass, Brazil (crabgrass, Brazil; postemergence, 8 g ai/ha): 20 | Plant response rating, Fall Panicum (fall panicum [2]; Postemergence, 16 g ai/ha): 10 | Plant response rating, Fall Panicum (fall panicum [2]; Postemergence, 31 g ai/ha): 20 | Plant response rating, Fall Panicum (fall panicum [2]; Postemergence, 125 g ai/ha): 30 | Plant response rating, Fall Panicum (fall panicum [2]; postemergence, 62 g ai/ha): 20 | Plant response rating, Fall Panicum (fall panicum [2]; postemergence, 8 g ai/ha): 10 | Plant response rating, Southern Sandbur (southern sandbur; Postemergence, 16 g ai/ha): 20 | Plant response rating, Southern Sandbur (southern sandbur; Postemergence, 31 g ai/ha): 25 | Plant response rating, Southern Sandbur (southern sandbur; Postemergence, 125 g ai/ha): 30 | Plant response rating, Southern Sandbur (southern sandbur; postemergence, 8 g ai/ha): 20 | Plant response rating, Dayflower, VA (dayflower, VA; Postemergence, 16 g ai/ha): 50 | Plant response rating, Dayflower, VA (dayflower, VA; Postemergence, 31 g ai/ha): 40 | Plant response rating, Dayflower, VA (dayflower, VA; Postemergence, 125 g ai/ha): 60 | Plant response rating, Dayflower, VA (dayflower, VA; postemergence, 62 g ai/ha): 30 and 60 | Plant response rating, Dayflower, VA (dayflower, VA; postemergence, 8 g ai/ha): 25 | Plant response rating, Field Bindweed (field bindweed; Postemergence, 16 g ai/ha): 40 | Plant response rating, Field Bindweed (field bindweed; Postemergence, 31 g ai/ha): 60 | Plant response rating, Field Bindweed (field bindweed; Postemergence, 125 g ai/ha): 60 | Plant response rating, Field Bindweed (field bindweed; postemergence, 62 g ai/ha): 40 and 50 | Plant response rating, Field Bindweed (field bindweed; postemergence, 8 g ai/ha): 30 | Plant response rating, Hairy Beggarticks (hairy beggarticks; Postemergence, 16 g ai/ha): 50 | Plant response rating, Hairy Beggarticks (hairy beggarticks; Postemergence, 31 g ai/ha): 60 | Plant response rating, Hairy Beggarticks (hairy beggarticks; Postemergence, 125 g ai/ha): 70 | Plant response rating, Hairy Beggarticks (hairy beggarticks; postemergence, 62 g ai/ha): 50 and 60 | Plant response rating, Hairy Beggarticks (hairy beggarticks; postemergence, 8 g ai/ha): 30 | Plant response rating, Common Waterhemp (common waterhemp; Postemergence, 16 g ai/ha): 95 | Plant response rating, Common Waterhemp (common waterhemp; Postemergence, 31 g ai/ha): 100 | Plant response rating, Common Waterhemp (common waterhemp; Postemergence, 125 g ai/ha): 100 | Plant response rating, Common Waterhemp (common waterhemp; postemergence, 62 g ai/ha): 60 and 90 | Plant response rating, Common Waterhemp (common waterhemp; postemergence, 8 g ai/ha): 90 | Plant response rating, Waterhemp_RES2 ([3]; Postemergence, 16 g ai/ha): 90 | Plant response rating, Waterhemp_RES2 ([3]; Postemergence, 31 g ai/ha): 98 | Plant response rating, Waterhemp_RES2 ([3]; Postemergence, 125 g ai/ha): 100 | Plant response rating, Waterhemp_RES2 ([3]; postemergence, 62 g ai/ha): 60 and 98 | Plant response rating, Waterhemp_RES2 ([3]; postemergence, 8 g ai/ha): 85

CCCNC(=O)c1cc(CC)n(Cc2nc(C(F)(F)F)nn2C)n1 [Compound 109]
Plant response rating, Corn (corn; Postemergence, 16 g ai/ha): 0 | Plant response rating, Corn (corn; Postemergence, 31 g ai/ha): 0 | Plant response rating, Corn (corn; Postemergence, 125 g ai/ha): 20 | Plant response rating, Corn (corn; Postemergence, 250 g ai/ha): 75 | Plant response rating, Soybean (soybean; Postemergence, 16 g ai/ha): 50 | Plant response rating, Soybean (soybean; Postemergence, 31 g ai/ha): 70 | Plant response rating, Soybean (soybean; Postemergence, 125 g ai/ha): 95 | Plant response rating, Soybean (soybean; Postemergence, 250 g ai/ha): 95 | Plant response rating, Pigweed, Palmer (pigweed, palmer; Postemergence, 16 g ai/ha): 30 | Plant response rating, Pigweed, Palmer (pigweed, palmer; Postemergence, 31 g ai/ha): 50 | Plant response rating, Pigweed, Palmer (pigweed, palmer; Postemergence, 125 g ai/ha): 60 | Plant response rating, Pigweed, Palmer (pigweed, palmer; Postemergence, 250 g ai/ha): 70 | Plant response rating, Crabgrass, Brazil (crabgrass, Brazil; Postemergence, 16 g ai/ha): 10 | Plant response rating, Crabgrass, Brazil (crabgrass, Brazil; Postemergence, 31 g ai/ha): 10 | Plant response rating, Crabgrass, Brazil (crabgrass, Brazil; Postemergence, 125 g ai/ha): 40 | Plant response rating, Crabgrass, Brazil (crabgrass, Brazil; Postemergence, 250 g ai/ha): 70 | Plant response rating, Fall Panicum (fall panicum [2]; Postemergence, 16 g ai/ha): 10 | Plant response rating, Fall Panicum (fall panicum [2]; Postemergence, 31 g ai/ha): 10 | Plant response rating, Fall Panicum (fall panicum [2]; Postemergence, 125 g ai/ha): 20 | Plant response rating, Fall Panicum (fall panicum [2]; Postemergence, 250 g ai/ha): 30 | Plant response rating, Southern Sandbur (southern sandbur; Postemergence, 16 g ai/ha): 0 | Plant response rating, Southern Sandbur (southern sandbur; Postemergence, 31 g ai/ha): 0 | Plant response rating, Southern Sandbur (southern sandbur; Postemergence, 125 g ai/ha): 10 | Plant response rating, Southern Sandbur (southern sandbur; Postemergence, 250 g ai/ha): 20 | Plant response rating, Dayflower, VA (dayflower, VA; Postemergence, 16 g ai/ha): 15 | Plant response rating, Dayflower, VA (dayflower, VA; Postemergence, 31 g ai/ha): 20 | Plant response rating, Dayflower, VA (dayflower, VA; Postemergence, 125 g ai/ha): 40 | Plant response rating, Dayflower, VA (dayflower, VA; Postemergence, 250 g ai/ha): 70 | Plant response rating, Field Bindweed (field bindweed; Postemergence, 16 g ai/ha): 30 | Plant response rating, Field Bindweed (field bindweed; Postemergence, 31 g ai/ha): 40 | Plant response rating, Field Bindweed (field bindweed; Postemergence, 125 g ai/ha): 50 | Plant response rating, Field Bindweed (field bindweed; Postemergence, 250 g ai/ha): 80 | Plant response rating, Hairy Beggarticks (hairy beggarticks; Postemergence, 16 g ai/ha): 35 | Plant response rating, Hairy Beggarticks (hairy beggarticks; Postemergence, 31 g ai/ha): 45 | Plant response rating, Hairy Beggarticks (hairy beggarticks; Postemergence, 125 g ai/ha): 50 | Plant response rating, Hairy Beggarticks (hairy beggarticks; Postemergence, 250 g ai/ha): 60 | Plant response rating, Common Waterhemp (common waterhemp; Postemergence, 16 g ai/ha): 50 | Plant response rating, Common Waterhemp (common waterhemp; Postemergence, 31 g ai/ha): 50 | Plant response rating, Common Waterhemp (common waterhemp; Postemergence, 125 g ai/ha): 75 | Plant response rating, Common Waterhemp (common waterhemp; Postemergence, 250 g ai/ha): 80 | Plant response rating, Waterhemp_RES2 ([3]; Postemergence, 16 g ai/ha): 30 | Plant response rating, Waterhemp_RES2 ([3]; Postemergence, 31 g ai/ha): 50 | Plant response rating, Waterhemp_RES2 ([3]; Postemergence, 125 g ai/ha): 60 | Plant response rating, Waterhemp_RES2 ([3]; Postemergence, 250 g ai/ha): 70

CCCc1cc(C(=O)NC(C)C)nn1Cc1cc(C(F)(F)F)nn1C [Compound 201]
Plant response rating, Fall Panicum (fall panicum [1]; Preemergence, 16 g ai/ha, scale 0 to 100): 85 | Plant response rating, Fall Panicum (fall panicum [1]; [4]): 90 | Plant response rating, Fall Panicum (fall panicum [1]; [5]): 100 | Plant response rating, Fall Panicum (fall panicum [1]; Preemergence, 250 g ai/ha, scale 0 to 100): 100 | Plant response rating, Fall Panicum (fall panicum [1]; [6]): 0
